Experimental data: PubChem BioAssay AID330 (DTP/NCI, 2004)
Where “and” joins values, the source holds several entries; their conditions need not be identical. Equal values may be shown once. Inconclusive results and toxic doses are left out.

Test system: P388 leukemia ip, CD2F1 mice, survival T/C
Assay: NCI In Vivo Anticancer Drug Screen. Data for tumor model P388 Leukemia (intraperitoneal) in CD2F1 (CDF1) mice
Conditions: endpoint: median survival time, higher = longer survival
Procedure, shortened: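 Mice carrying the transplanted tumor received test compound or vehicle. Survival was recorded in each group, and the value is the treated-group measurement divided by that of the vehicle-treated control group.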

[1] = dose: 50.0 mg/kg/injection, schedule: Q01DX009 (ip), vehicle: Klucel (hydroxypropylcellulose) (HPC)
[2] = dose: 60.0 mg/kg/injection, schedule: Q01DX005 (ip), vehicle: saline with Tween-80
[3] = dose: 120.0 mg/kg/injection, schedule: Q01DX005 (ip), vehicle: saline with Tween-80
[4] = dose: 240.0 mg/kg/injection, schedule: Q01DX005 (ip), vehicle: saline with Tween-80
[5] = dose: 100.0 mg/kg/injection, schedule: Q01DX005 (ip), vehicle: saline
[6] = dose: 200.0 mg/kg/injection, schedule: Q01DX005 (ip), vehicle: saline
[7] = dose: 50.0 mg/kg/injection, schedule: Q01DX005 (ip), vehicle: saline + Tween-80 + alcohol
[8] = dose: 100.0 mg/kg/injection, schedule: Q01DX005 (ip), vehicle: saline + Tween-80 + alcohol
[9] = dose: 200.0 mg/kg/injection, schedule: Q01DX005 (ip), vehicle: saline + Tween-80 + alcohol

CC(C)CC1C(=O)N2CCCC2C2(O)OC(NC(=O)C3C=C4c5cccc6[nH]cc(c56)CC4N(C)C3)(C(C)C)C(=O)N12 (stereo not drawn)
T/C (dose: 2.5 mg/kg/injection, schedule: Q01DX009 (ip), vehicle: Klucel (hydroxypropylcellulose) (HPC)): 91 % of control
T/C (dose: 5.0 mg/kg/injection, schedule: Q01DX009 (ip), vehicle: Klucel (hydroxypropylcellulose) (HPC)): 90 % of control
T/C (dose: 20.0 mg/kg/injection, schedule: Q01DX009 (ip), vehicle: Klucel (hydroxypropylcellulose) (HPC)): 99 % of control
T/C (dose: 40.0 mg/kg/injection, schedule: Q01DX009 (ip), vehicle: Klucel (hydroxypropylcellulose) (HPC)): 101 % of control

CC(C)C12OC1CC13OC1C1OC1C1OC132 (stereo not drawn)
T/C (dose: 100.0 mg/kg/injection, schedule: Q04DX002 (ip), vehicle: saline with Tween-80): 101 % of control
T/C (dose: 200.0 mg/kg/injection, schedule: Q04DX002 (ip), vehicle: saline with Tween-80): 99 % of control
T/C (dose: 400.0 mg/kg/injection, schedule: Q04DX002 (ip), vehicle: saline with Tween-80): 94 % of control

CCCCCCOC(=O)CC1CC(C(C)=O)C1(C)C (stereo not drawn)
T/C [1]: 94 % of control
T/C (dose: 100.0 mg/kg/injection, schedule: Q01DX009 (ip), vehicle: Klucel (hydroxypropylcellulose) (HPC)): 106 % of control
T/C (dose: 200.0 mg/kg/injection, schedule: Q01DX009 (ip), vehicle: Klucel (hydroxypropylcellulose) (HPC)): 109 % of control
T/C (dose: 400.0 mg/kg/injection, schedule: Q01DX009 (ip), vehicle: Klucel (hydroxypropylcellulose) (HPC)): 117 % of control

COc1ccc(C2CC(CO)ON2c2ccccc2)cc1 (stereo not drawn)
T/C [2]: 98 % of control
T/C [3]: 98 % of control
T/C [4]: 99 % of control

CCN1NC1C (stereo not drawn)
T/C (dose: 50.0 mg/kg/injection, schedule: Q01DX005 (ip), vehicle: saline): 105 % of control
T/C [5]: 97 % of control
T/C [6]: 97 % of control

COC(=O)c1cc2ccc1OCC#CC#CCOc1ccc(cc1C(=O)OC)OCC#CC#CCO2
T/C [2]: 89 % of control
T/C [3]: 88 % of control
T/C [4]: 88 % of control

CSc1nc(C)c(C(=O)CCN2CCOCC2)s1
T/C (dose: 60.0 mg/kg/injection, schedule: Q01DX005 (ip), vehicle: saline): 117 % of control
T/C (dose: 120.0 mg/kg/injection, schedule: Q01DX005 (ip), vehicle: saline): 105 % of control

CN1CCc2cc3c(cc2C(=O)Cc2ccc4c(c2CO1)OCO4)OCO3
T/C (dose: 2.75 mg/kg/injection, schedule: Q01DX005 (ip), vehicle: Klucel (hydroxypropylcellulose) (HPC)): 99 % of control
T/C (dose: 5.5 mg/kg/injection, schedule: Q01DX005 (ip), vehicle: Klucel (hydroxypropylcellulose) (HPC)): 94 % of control
T/C (dose: 11.0 mg/kg/injection, schedule: Q01DX005 (ip), vehicle: Klucel (hydroxypropylcellulose) (HPC)): 96 % of control
T/C (dose: 22.0 mg/kg/injection, schedule: Q01DX005 (ip), vehicle: Klucel (hydroxypropylcellulose) (HPC)): 99 % of control

CC12C(=Nc3ccccc31)CCc1ccccc12 (stereo not drawn)
T/C [7]: 99 % of control
T/C [8]: 100 % of control
T/C [9]: 100 % of control

NC(=O)c1csc(C2OC(CO)C(O)C2O)n1 (stereo not drawn)
T/C (dose: 75.0 mg/kg/injection, schedule: Q01DX005 (ip), vehicle: saline): 158 % of control
T/C [5]: 155 % of control and 159 % of control and 161 % of control
T/C (dose: 100.0 mg/kg/injection, schedule: Q01DX005 (ip), vehicle: water): 157 % of control
T/C (dose: 150.0 mg/kg/injection, schedule: Q01DX005 (ip), vehicle: saline): 152 % of control and 158 % of control
T/C [6]: 173 % of control and 174 % of control and 178 % of control
T/C (dose: 200.0 mg/kg/injection, schedule: Q01DX005 (ip), vehicle: water): 171 % of control
T/C (dose: 300.0 mg/kg/injection, schedule: Q01DX005 (ip), vehicle: saline): 163 % of control and 177 % of control
T/C (dose: 300.0 mg/kg/injection, schedule: Q01DX005 (ip), vehicle: water): 158 % of control
T/C (dose: 300.0 mg/kg/injection, schedule: Q01DX009 (ip), vehicle: water): 193 % of control and 198 % of control
T/C (dose: 400.0 mg/kg/injection, schedule: Q01DX005 (ip), vehicle: saline): 181 % of control and 187 % of control and 198 % of control
T/C (dose: 400.0 mg/kg/injection, schedule: Q01DX005 (ip), vehicle: water): 164 % of control and 189 % of control
T/C (dose: 400.0 mg/kg/injection, schedule: Q01DX009 (ip), vehicle: water): 201 % of control and 224 % of control
T/C (dose: 600.0 mg/kg/injection, schedule: Q01DX005 (ip), vehicle: saline): 177 % of control
T/C (dose: 600.0 mg/kg/injection, schedule: Q01DX005 (ip), vehicle: water): 169 % of control
T/C (dose: 600.0 mg/kg/injection, schedule: Q01DX009 (ip), vehicle: water): 234 % of control and 237 % of control
T/C (dose: 700.0 mg/kg/injection, schedule: Q01DX009 (ip), vehicle: water): 245 % of control and 86 % of control
T/C (dose: 750.0 mg/kg/injection, schedule: Q01DX009 (ip), vehicle: water): 117 % of control
T/C (dose: 800.0 mg/kg/injection, schedule: Q01DX005 (ip), vehicle: saline): 217 % of control
T/C (dose: 800.0 mg/kg/injection, schedule: Q01DX009 (ip), vehicle: water): 99 % of control and 245 % of control

Cc1nc(C(=O)O)cc([N+](=O)[O-])c1C
T/C (dose: 25.0 mg/kg/injection, schedule: Q01DX009 (ip), vehicle: other): 97 % of control
T/C (dose: 50.0 mg/kg/injection, schedule: Q01DX009 (ip), vehicle: other): 97 % of control
T/C (dose: 100.0 mg/kg/injection, schedule: Q01DX009 (ip), vehicle: other): 100 % of control
T/C (dose: 200.0 mg/kg/injection, schedule: Q01DX009 (ip), vehicle: other): 94 % of control

O=S(=O)(C(Br)S(=O)(=O)C(F)(F)C(F)(F)C(F)(F)C(F)(F)F)C(F)(F)C(F)(F)C(F)(F)C(F)(F)F
T/C (dose: 25.0 mg/kg/injection, schedule: Q01DX001 (ip), vehicle: saline): 95 % of control
T/C (dose: 50.0 mg/kg/injection, schedule: Q01DX001 (ip), vehicle: saline): 95 % of control
T/C (dose: 100.0 mg/kg/injection, schedule: Q01DX001 (ip), vehicle: saline): 100 % of control and 101 % of control

COc1ccc2nc(-c3ccccn3)ccc2c1
T/C (dose: 25.0 mg/kg/injection, schedule: Q01DX009 (ip), vehicle: distilled water + Tween-80): 106 % of control
T/C (dose: 50.0 mg/kg/injection, schedule: Q01DX009 (ip), vehicle: distilled water + Tween-80): 106 % of control
T/C (dose: 100.0 mg/kg/injection, schedule: Q01DX009 (ip), vehicle: distilled water + Tween-80): 101 % of control
T/C (dose: 200.0 mg/kg/injection, schedule: Q01DX009 (ip), vehicle: distilled water + Tween-80): 93 % of control
T/C (dose: 400.0 mg/kg/injection, schedule: Q01DX009 (ip), vehicle: distilled water + Tween-80): 92 % of control

Cc1ccc(C(C)C)cc1NC(=O)c1cccnc1
T/C (dose: 50.0 mg/kg/injection, schedule: Q04DX002 (ip), vehicle: Klucel (hydroxypropylcellulose) (HPC)): 98 % of control
T/C (dose: 100.0 mg/kg/injection, schedule: Q04DX002 (ip), vehicle: Klucel (hydroxypropylcellulose) (HPC)): 102 % of control
T/C (dose: 200.0 mg/kg/injection, schedule: Q04DX002 (ip), vehicle: Klucel (hydroxypropylcellulose) (HPC)): 92 % of control

Cc1cc(NS(=O)(=O)c2ccc(N)cc2)no1.[Ag]
T/C (dose: 12.5 mg/kg/injection, schedule: Q01DX009 (ip), vehicle: Klucel (hydroxypropylcellulose) (HPC)): 89 % of control
T/C (dose: 25.0 mg/kg/injection, schedule: Q01DX009 (ip), vehicle: Klucel (hydroxypropylcellulose) (HPC)): 101 % of control
T/C [1]: 106 % of control

O=S(=O)(OC1=CC2c3ccccc3C1c1ccccc12)C(F)(F)F
T/C [7]: 100 % of control
T/C [8]: 100 % of control
T/C [9]: 103 % of control

CCCCCCC1=NC(C)(C)CO1
T/C (dose: 50.0 mg/kg/injection, schedule: Q01DX009 (ip), vehicle: saline with Tween-80): 100 % of control
T/C (dose: 50.0 mg/kg/injection, schedule: Q04DX003 (ip), vehicle: saline with Tween-80): 100 % of control
T/C (dose: 100.0 mg/kg/injection, schedule: Q01DX009 (ip), vehicle: saline with Tween-80): 104 % of control
T/C (dose: 100.0 mg/kg/injection, schedule: Q04DX003 (ip), vehicle: saline with Tween-80): 100 % of control
T/C (dose: 200.0 mg/kg/injection, schedule: Q01DX009 (ip), vehicle: saline with Tween-80): 100 % of control
T/C (dose: 200.0 mg/kg/injection, schedule: Q04DX003 (ip), vehicle: saline with Tween-80): 109 % of control

O=C(/C(=C\c1ccc(F)cc1)S(=O)(=O)c1ccc(F)cc1)c1ccccc1
T/C (dose: 50.0 mg/kg/injection, schedule: Q01DX005 (ip), vehicle: saline with Tween-80): 110 % of control
T/C (dose: 100.0 mg/kg/injection, schedule: Q01DX005 (ip), vehicle: saline with Tween-80): 102 % of control
T/C (dose: 200.0 mg/kg/injection, schedule: Q01DX005 (ip), vehicle: saline with Tween-80): 103 % of control
